From PubChem BioAssay (NCI)
Several values for one entry are separate records, joined by “and”; a condition that tells them apart may be missing. Equal values may be shown once.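 In this assay, cells in 96-well plates receive the compound at five concentrations for 48 hours. Endpoints are linearly interpolated between the surrounding concentrations. At the GI50, growth is halved. TGI: concentration producing complete growth inhibition.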

Assays:
Assay in all cases: NCI-60 cell line screen, 48 h
SK-OV-3 ovarian = tested on: SK-OV-3 ovarian
RPMI-8226 leukemia = tested on: RPMI-8226 leukemia
IGROV1 ovarian = tested on: IGROV1 ovarian
LOX IMVI melanoma = tested on: LOX IMVI melanoma
HOP-62 NSCLC = tested on: HOP-62 NSCLC
U251 CNS = tested on: U251 CNS
SN12C renal = tested on: SN12C renal
OVCAR-5 ovarian = tested on: OVCAR-5 ovarian
NCI-H23 lung = tested on: NCI-H23 lung
KM12 colon = tested on: KM12 colon
HOP-92 NSCLC = tested on: HOP-92 NSCLC

Row | SMILES | TGI (SK-OV-3 ovarian) | TGI (RPMI-8226 leukemia) | TGI (IGROV1 ovarian) | TGI (LOX IMVI melanoma) | TGI (HOP-62 NSCLC) | TGI (U251 CNS) | TGI (SN12C renal) | TGI (OVCAR-5 ovarian) | TGI (NCI-H23 lung) | TGI (KM12 colon) | TGI (HOP-92 NSCLC) | GI50 (RPMI-8226 leukemia) | GI50 (IGROV1 ovarian) | GI50 (LOX IMVI melanoma) | GI50 (U251 CNS) | GI50 (SN12C renal) | GI50 (KM12 colon) | GI50 (OVCAR-5 ovarian) | GI50 (NCI-H23 lung) | GI50 (HOP-92 NSCLC)
1 | Nc1nn(CC(O)CO)c(=O)s1 (centres undefined) | > 100 µM | > 100 µM | > 100 µM | > 100 µM | > 100 µM | > 100 µM | > 100 µM | > 100 µM | > 100 µM |  |  |  |  |  |  |  |  |  |  | 
2 | N/C(=N\N=C\c1cc2c(cc1Cl)OCO2)NO | > 92.5 µM | > 72.8 µM | > 100 µM | > 100 µM | > 100 µM | > 100 µM | > 100 µM | > 61.5 µM | > 100 µM | > 100 µM | > 95.1 µM |  |  |  |  |  |  |  |  | 
3 | O=C1OC(c2ccc(Cl)cc2)(c2ccc(Cl)cc2)c2c1ccc1ccccc21 | > 100 µM | > 100 µM | > 100 µM | > 100 µM |  | > 100 µM | > 100 µM | > 100 µM | > 100 µM | > 100 µM |  |  |  |  |  |  |  |  |  | 
4 | CCOC(=O)C1=NN(c2ccc(Cl)cc2)C2=CC(C)=NN(C)C(=S)N21 | 94.4 µM | > 100 µM | > 100 µM | > 100 µM |  | 59.2 µM | > 100 µM | > 100 µM | > 100 µM | > 100 µM | > 100 µM |  |  |  |  |  |  |  |  | 
5 | C=CC[N+](CCO)(CCO)CCCCCCCCCCCCCCCCCC | 27.9 µM | 5.45 µM | 3.78 µM | 12.6 µM | 27.3 µM | 4.48 µM | 24 µM | 31.5 µM | 44.9 µM | 3.58 µM | 3.91 µM |  |  |  |  |  |  |  |  | 
6 | COc1ccc(/C=N/n2cnc3c(c2=O)S/C(=C2/SC(=S)N(c4ccc(C)cc4)C2=O)N3c2ccccc2)cc1 | > 100 µM | > 100 µM | > 100 µM | > 100 µM | 70.9 µM |  | > 100 µM | > 100 µM |  | > 100 µM | > 100 µM |  |  |  |  |  |  |  |  | 
7 | C[C@H](CN1CC(=O)NC(=O)C1)N1CC(=O)NC(=O)C1 | > 100 µM | > 100 µM | > 100 µM | > 100 µM | > 100 µM | > 100 µM | > 100 µM | > 100 µM | > 100 µM | > 100 µM | > 100 µM |  |  |  |  |  |  |  |  | 
8 | C=C1C(=O)O[C@@H]2OC3(C)CCC4C(C)CCC1C42OO3 (some centres undefined) | 34.7 µM |  | 16.7 µM and 12.7 µM | 12.9 µM and 8.11 µM | 36.7 µM | 21.2 µM and 16.8 µM | 16.6 µM and 12.3 µM | 39.7 µM and 29.3 µM | 22 µM and 17.5 µM | 9.02 µM and 16.4 µM | 6.5 µM and 4.48 µM | 0.573 µM | 4.71 µM | 3.55 µM | 8.18 µM | 4.96 µM | 2.66 µM | 24.5 µM | 7.77 µM | 2.54 µM
